The values that follow come from ChEMBL document CHEMBL4373731, “Antiprotozoal alkaloid principles of the plant family Amaryllidaceae” (Bioorg Med Chem Lett, 2019).

In general, IC50 refers to the concentration that inhibits the measured activity by half.

Values after ≈ are worked out from the molar mass of the structure shown.

The subject of data set [1] is Trypanosoma cruzi. Kind of data set: Antitrypanosomal activity against Trypanosoma cruzi. Format: functional, organism-based.
For data set [2], the system named is Leishmania donovani. Kind of data set: […] activity against Leishmania donovani. Type of data set: functional, organism-based.
Data set [3] deals with Trypanosoma brucei rhodesiense. Kind of data set: Antitrypanosomal activity against Trypanosoma brucei rhodesiense. Format: functional, organism-based.
The test system of a further data set is L6. Kind of data set: Cytotoxicity against rat L6 cells assessed as reduction in cell viability. Type of data set: cell-based.
The next data set has as its system KB. Briefly: Cytotoxicity against human KB cells assessed as reduction in cell viability. Type of data set: cell-based.
The nature of data set [4]: Selectivity index, ratio of IC50 for Trypanosoma brucei rhodesiense to IC50 for human KB cells. Type of data set: toxicity. The settings on record: read-out: Ratio IC50.
Data set [5] has as its system Trypanosoma brucei rhodesiense. Kind of data set: Antitrypanosomal activity against Trypanosoma brucei rhodesiense after 48 hrs by [3H]-hypoxanthine incorporation assay. Format: functional, organism-based.
Data set [6] has as its system Trypanosoma cruzi. Briefly: Antitrypanosomal activity against Trypanosoma cruzi after 48 hrs by [3H]-hypoxanthine incorporation assay. Type of data set: functional, organism-based.
For data set [7], the system named is Leishmania donovani. Kind of data set: […] activity against Leishmania donovani after 48 hrs by [3H]-hypoxanthine incorporation assay. Type of data set: functional, organism-based.

`O[C@H]1[C@H]2c3cc4c(cc3CN3CC[C@H](C[C@@H]1O)[C@H]23)OCO4`: the IC50 is 21.4 µg/mL (≈ 73.9 µM) in the data set with Trypanosoma cruzi [1]; above 90 µg/mL with Leishmania donovani [2]; 3.1 µg/mL (≈ 10.7 µM) in [3]; 27 µg/mL (≈ 93.3 µM) with L6; above 50 µg/mL in the data set on KB. Also, the selectivity ratio in data set [4] is above 16.

For the molecule `O=C(Cn1ccnc1[N+](=O)[O-])NCc1ccccc1` [BENZNIDAZOLE], the IC50 in the data set on Trypanosoma cruzi [1] turned out to be 0.36 µg/mL (≈ 1.38 µM); in [5] it was 0.001 µg/mL (≈ 0.00384 µM); in the data set with Trypanosoma cruzi [6] it was 5.42 µg/mL (≈ 20.8 µM); in the data set on Leishmania donovani [7] it was 33.3 µg/mL (≈ 128 µM); in the data set on Leishmania donovani [2], 0.2 µg/mL (≈ 0.768 µM); in [3], 0.04 µg/mL (≈ 0.154 µM).
